System: E. coli pUCPAO1RHL biosensor strain
Test: Biosensor fluorescence emission (GFP) in response to AHL extract and copper
Type: cell-based, Escherichia coli
Details: copper by itself, no AHL
Experimental: The biosensing strain named E. coli pUCPAO1RHL that contains the gene construct of the invention, was used to evaluate its response to the presence of AHLs and the presence of copper. For the evaluation, AHLs were obtained from the bacterium Pseudomonas aeruginosa from a 12-hour bacterial culture in late exponential phase. For this, the supernatant was separated from the bacterial cells by centrifugation at 8,000 rpm for 15 minutes. An organic extraction with dichloromethane (DCM) from the supernatant was performed in a ratio of 70:30 (Supernatant: DCM). For this, 200 ml of supernatant and 85 ml of DCM were incorporated into a […] volume decantation flask. It was stirred vigorously, then left to settle at room temperature for 1 hour. […]
The biosensor strain (180 μL) was grown in the presence of 10 μL of AHL extract (obtained from the stationary phase of growth of P. aeruginosa) and in the presence of 500 μM of copper (such as CuSO4) in Luria Bertani liquid medium at 37° C. stirred in 96-well plates on a temperature controlled orbital shaker spectrofluorometer equipment (Tecan USA). During growth, turbidity was recorded at an absorbance of 600 nm and fluorescence at […] every 15 minutes, equivalent to one cycle of fluorescence emission measurement. […]

SMILES: O=S(=O)([O-])[O-].[Cu+2] [copper, CuSO4]
- inducing effect on fluorescence: did not show an obvious inducing effect of fluorescence

— patent publication US20200308619A1, “GENE CONSTRUCT AND BIOSENSOR FOR THE RAPID DETECTION OF AHL MOLECULES AND THE PATHOGENIC BACTERIA THAT PRODUCE SAME” (UNIVERSIDAD DE VALPARAISO, priority 2017, published 2020)
